Experiments:
Assay in all cases: biochemical
Design in all cases: Invitrogen SelectScreen kinase panel, percent inhibition at 1 uM, ATP at Km
Details in all cases: read-out: Invitrogen KSS %Inh at 1 µM
PIM2 = PIM2 (Homo sapiens, UniProt Q9P1W9)
Procedure, shortened: (§1)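 Commercial kinase panel screens run with ATP at the Km for each kinase. Compounds tested at 1 µM final concentration; values are % inhibition of phosphorylation relative to control.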

MST1R (RON) = MST1R (RON) (Homo sapiens, UniProt Q04912)
Procedure, shortened: as §1

PTK2 (FAK) = PTK2 (FAK) (Homo sapiens, UniProt Q05397)
Procedure, shortened: as §1

PDGFRB (PDGFR beta) = PDGFRB (PDGFR beta) (Homo sapiens, UniProt P09619)
Procedure, shortened: as §1

LCK = LCK (Homo sapiens, UniProt P06239)
Procedure, shortened: as §1

TBK1 = TBK1 (Homo sapiens, UniProt Q9UHD2)
Procedure, shortened: as §1

FYN = FYN (Homo sapiens, UniProt P06241)
Chain of FYN (P06241 whole entry): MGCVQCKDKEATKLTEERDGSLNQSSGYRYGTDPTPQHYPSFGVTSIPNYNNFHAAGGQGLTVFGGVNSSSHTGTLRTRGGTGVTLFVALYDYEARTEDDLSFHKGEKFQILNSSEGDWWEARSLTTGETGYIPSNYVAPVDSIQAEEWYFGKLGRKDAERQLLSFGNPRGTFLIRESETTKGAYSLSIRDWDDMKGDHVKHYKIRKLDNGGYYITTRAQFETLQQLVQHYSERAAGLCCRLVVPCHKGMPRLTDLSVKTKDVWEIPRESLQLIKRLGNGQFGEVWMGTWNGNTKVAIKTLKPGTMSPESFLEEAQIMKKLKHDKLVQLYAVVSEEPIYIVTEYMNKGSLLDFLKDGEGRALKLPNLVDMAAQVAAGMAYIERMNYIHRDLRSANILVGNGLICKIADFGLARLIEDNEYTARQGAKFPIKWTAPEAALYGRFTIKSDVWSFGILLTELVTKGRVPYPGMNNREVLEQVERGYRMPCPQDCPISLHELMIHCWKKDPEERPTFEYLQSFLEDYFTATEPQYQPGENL
Procedure, shortened: as §1

MINK1 = MINK1 (Homo sapiens, UniProt Q8N4C8)
Chain of MINK1 (Q8N4C8 whole entry): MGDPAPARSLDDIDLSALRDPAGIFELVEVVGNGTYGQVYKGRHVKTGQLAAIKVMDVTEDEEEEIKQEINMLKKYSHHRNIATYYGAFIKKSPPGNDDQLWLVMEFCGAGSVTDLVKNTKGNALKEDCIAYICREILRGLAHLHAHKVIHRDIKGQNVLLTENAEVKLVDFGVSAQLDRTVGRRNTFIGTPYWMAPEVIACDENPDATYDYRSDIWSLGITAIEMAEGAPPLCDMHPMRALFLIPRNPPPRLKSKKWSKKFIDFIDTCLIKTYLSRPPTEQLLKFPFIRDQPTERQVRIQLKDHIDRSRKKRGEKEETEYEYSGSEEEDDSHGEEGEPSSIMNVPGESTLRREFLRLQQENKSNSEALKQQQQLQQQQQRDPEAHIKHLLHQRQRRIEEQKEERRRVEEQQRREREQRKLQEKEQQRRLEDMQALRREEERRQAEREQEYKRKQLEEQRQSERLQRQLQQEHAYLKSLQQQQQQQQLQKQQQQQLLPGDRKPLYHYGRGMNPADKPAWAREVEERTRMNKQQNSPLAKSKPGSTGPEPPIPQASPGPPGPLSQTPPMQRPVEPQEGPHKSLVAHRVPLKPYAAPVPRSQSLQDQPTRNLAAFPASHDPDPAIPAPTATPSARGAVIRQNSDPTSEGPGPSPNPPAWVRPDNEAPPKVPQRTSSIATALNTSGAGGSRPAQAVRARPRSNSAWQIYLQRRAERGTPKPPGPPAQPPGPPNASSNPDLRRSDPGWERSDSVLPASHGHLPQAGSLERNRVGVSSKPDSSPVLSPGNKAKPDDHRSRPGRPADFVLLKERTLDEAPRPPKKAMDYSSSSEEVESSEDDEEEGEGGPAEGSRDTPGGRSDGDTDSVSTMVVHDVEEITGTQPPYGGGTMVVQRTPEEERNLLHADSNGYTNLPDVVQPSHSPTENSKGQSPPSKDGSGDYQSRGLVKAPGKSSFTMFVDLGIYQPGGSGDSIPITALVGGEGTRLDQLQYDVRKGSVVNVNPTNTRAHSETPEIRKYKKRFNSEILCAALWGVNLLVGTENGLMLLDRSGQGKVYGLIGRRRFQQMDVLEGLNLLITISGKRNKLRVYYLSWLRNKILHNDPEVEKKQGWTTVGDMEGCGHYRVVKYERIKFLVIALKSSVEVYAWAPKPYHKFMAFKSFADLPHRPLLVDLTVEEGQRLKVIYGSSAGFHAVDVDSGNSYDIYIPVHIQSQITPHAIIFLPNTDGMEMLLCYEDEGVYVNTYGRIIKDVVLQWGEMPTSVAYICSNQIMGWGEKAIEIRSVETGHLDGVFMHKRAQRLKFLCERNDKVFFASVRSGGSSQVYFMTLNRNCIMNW
Procedure, shortened: as §1

GRK4 = GRK4 (Homo sapiens, UniProt P32298)
Chain of GRK4 (P32298 whole entry): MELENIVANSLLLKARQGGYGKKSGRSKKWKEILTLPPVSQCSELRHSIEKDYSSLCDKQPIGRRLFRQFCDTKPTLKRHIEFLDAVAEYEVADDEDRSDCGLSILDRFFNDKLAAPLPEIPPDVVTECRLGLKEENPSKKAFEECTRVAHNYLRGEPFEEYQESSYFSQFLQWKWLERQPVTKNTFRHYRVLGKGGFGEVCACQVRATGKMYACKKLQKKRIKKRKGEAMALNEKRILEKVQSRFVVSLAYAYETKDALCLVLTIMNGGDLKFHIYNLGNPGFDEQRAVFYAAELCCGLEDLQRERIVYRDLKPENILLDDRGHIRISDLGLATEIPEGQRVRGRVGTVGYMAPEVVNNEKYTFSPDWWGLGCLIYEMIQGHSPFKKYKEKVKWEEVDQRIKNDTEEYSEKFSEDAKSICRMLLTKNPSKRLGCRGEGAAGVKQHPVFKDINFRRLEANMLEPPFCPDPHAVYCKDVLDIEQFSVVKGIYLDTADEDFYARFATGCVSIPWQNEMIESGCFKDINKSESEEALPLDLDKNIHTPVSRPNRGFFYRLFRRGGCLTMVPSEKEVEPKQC
Procedure, shortened: as §1

LYN A = molecular target: T1, LYN A (Homo sapiens, UniProt P07948)
T1 construct: isoform A
Procedure, shortened: as §1

INSR = INSR (Homo sapiens, UniProt P06213)
Procedure, shortened: as §1

PTK6 (Brk) = PTK6 (Brk) (Homo sapiens, UniProt Q13882)
Procedure, shortened: as §1

RPS6KA1 (RSK1) = RPS6KA1 (RSK1) (Homo sapiens, UniProt Q15418)
Procedure, shortened: as §1

PIM1 = PIM1 (Homo sapiens, UniProt P11309)
Chain of PIM1 (P11309 whole entry): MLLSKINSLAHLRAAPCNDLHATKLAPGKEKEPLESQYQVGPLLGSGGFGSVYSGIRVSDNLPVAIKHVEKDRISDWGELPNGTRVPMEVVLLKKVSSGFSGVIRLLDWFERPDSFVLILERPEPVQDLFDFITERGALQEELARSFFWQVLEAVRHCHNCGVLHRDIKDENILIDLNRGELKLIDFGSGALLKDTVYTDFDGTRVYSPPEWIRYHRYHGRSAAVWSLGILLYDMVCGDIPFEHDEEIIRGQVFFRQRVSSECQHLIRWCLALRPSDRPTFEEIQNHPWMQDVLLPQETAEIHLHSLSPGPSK
Procedure, shortened: as §1

KDR (VEGFR2) = KDR (VEGFR2) (Homo sapiens, UniProt P35968)
Procedure, shortened: as §1

FGFR4 = FGFR4 (Homo sapiens, UniProt P22455)
Procedure, shortened: as §1

PLK2 = PLK2 (Homo sapiens, UniProt Q9NYY3)
Chain of PLK2 (Q9NYY3 whole entry): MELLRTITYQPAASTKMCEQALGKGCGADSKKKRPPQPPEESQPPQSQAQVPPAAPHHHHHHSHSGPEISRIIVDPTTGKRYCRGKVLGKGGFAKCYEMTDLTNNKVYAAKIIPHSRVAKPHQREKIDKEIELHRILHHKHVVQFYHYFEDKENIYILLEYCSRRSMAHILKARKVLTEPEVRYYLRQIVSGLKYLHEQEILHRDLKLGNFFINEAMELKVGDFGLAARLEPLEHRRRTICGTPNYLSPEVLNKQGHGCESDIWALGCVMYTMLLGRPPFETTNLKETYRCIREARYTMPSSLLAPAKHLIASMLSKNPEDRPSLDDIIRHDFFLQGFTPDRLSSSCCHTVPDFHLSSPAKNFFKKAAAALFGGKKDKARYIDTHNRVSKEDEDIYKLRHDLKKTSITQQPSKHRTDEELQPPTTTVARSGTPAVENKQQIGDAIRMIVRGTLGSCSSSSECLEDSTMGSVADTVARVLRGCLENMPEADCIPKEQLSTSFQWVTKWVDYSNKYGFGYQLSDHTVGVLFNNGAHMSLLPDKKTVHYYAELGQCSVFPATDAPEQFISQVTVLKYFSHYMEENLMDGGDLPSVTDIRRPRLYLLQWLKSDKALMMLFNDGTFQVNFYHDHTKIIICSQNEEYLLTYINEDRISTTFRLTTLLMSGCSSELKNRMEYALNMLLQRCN
Procedure, shortened: as §1

AMPK A1/B1/G1 = molecular target: T2, AMPK A1/B1/G1 (Homo sapiens, UniProt Q13131)
T2 construct: gene PRKAA1; A1/B1/G1
Procedure, shortened: as §1

CDK5/p35 = molecular target: T3, CDK5/p35 (Homo sapiens, UniProt Q00535)
T3 construct: p35
Procedure, shortened: as §1

EGFR (ErbB1) = EGFR (ErbB1) (Homo sapiens, UniProt P00533)
Chain of EGFR (ErbB1) (P00533 whole entry): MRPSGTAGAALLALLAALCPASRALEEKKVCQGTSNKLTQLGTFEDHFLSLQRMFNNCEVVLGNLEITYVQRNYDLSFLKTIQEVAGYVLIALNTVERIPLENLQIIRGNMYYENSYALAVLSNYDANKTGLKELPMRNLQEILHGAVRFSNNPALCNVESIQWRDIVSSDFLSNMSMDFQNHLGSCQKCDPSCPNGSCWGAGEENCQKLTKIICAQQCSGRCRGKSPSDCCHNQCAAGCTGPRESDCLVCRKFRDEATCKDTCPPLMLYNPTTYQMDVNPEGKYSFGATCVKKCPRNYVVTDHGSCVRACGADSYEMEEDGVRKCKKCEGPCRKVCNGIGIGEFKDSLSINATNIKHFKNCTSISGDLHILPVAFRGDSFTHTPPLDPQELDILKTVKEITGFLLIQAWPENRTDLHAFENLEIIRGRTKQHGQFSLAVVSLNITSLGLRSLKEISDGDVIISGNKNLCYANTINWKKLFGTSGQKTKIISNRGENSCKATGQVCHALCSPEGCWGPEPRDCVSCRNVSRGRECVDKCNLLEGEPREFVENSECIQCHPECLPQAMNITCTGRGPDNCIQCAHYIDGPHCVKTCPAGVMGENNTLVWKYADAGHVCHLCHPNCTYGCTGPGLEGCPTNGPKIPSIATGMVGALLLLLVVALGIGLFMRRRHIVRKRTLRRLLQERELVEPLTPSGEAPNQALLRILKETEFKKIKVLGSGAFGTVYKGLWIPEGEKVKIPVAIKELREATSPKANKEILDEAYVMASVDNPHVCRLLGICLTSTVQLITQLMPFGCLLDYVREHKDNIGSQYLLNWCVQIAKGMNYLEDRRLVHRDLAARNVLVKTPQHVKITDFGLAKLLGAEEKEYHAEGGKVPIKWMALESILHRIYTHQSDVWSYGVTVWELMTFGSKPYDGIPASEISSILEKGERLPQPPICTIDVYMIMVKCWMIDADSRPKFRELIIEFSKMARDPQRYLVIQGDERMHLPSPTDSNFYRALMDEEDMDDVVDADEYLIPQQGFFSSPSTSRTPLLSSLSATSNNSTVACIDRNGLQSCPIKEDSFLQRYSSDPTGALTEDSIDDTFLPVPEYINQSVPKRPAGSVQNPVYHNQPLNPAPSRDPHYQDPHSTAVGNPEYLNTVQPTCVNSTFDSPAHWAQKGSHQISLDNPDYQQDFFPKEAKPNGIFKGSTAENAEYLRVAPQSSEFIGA
Procedure, shortened: as §1

MAPK14 (p38 alpha)** = MAPK14 (p38 alpha)** (Homo sapiens, UniProt Q16539)
Procedure, shortened: as §1

FLT1 (VEGFR1) = FLT1 (VEGFR1) (Homo sapiens, UniProt P17948)
Procedure, shortened: as §1

Chain of PIM2 (Q9P1W9 whole entry): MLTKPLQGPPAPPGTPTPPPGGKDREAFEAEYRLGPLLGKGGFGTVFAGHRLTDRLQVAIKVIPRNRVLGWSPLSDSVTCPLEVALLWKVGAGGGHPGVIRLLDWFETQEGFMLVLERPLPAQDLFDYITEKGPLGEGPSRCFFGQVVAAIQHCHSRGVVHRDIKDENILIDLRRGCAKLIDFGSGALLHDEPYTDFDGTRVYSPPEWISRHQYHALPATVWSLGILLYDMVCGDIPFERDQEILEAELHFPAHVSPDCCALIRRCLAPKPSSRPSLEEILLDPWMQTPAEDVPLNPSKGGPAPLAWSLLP

inhibition at 1 µM (PIM2): 3% | inhibition at 1 µM (MST1R (RON)): 2% | inhibition at 1 µM (PTK2 (FAK)): 12% | inhibition at 1 µM (PDGFRB (PDGFR beta)): 2% | inhibition at 1 µM (LCK): 15% | inhibition at 1 µM (TBK1): -7% | inhibition at 1 µM (FYN): -4% | inhibition at 1 µM (MINK1): 8% | inhibition at 1 µM (GRK4): -18% | inhibition at 1 µM (LYN A): 2% | inhibition at 1 µM (INSR): -4% | inhibition at 1 µM (PTK6 (Brk)): 5% | inhibition at 1 µM (RPS6KA1 (RSK1)): 6% | inhibition at 1 µM (PIM1): 2% | inhibition at 1 µM (KDR (VEGFR2)): 33% | inhibition at 1 µM (FGFR4): 5% | inhibition at 1 µM (PLK2): 37% | inhibition at 1 µM (AMPK A1/B1/G1): 16% | inhibition at 1 µM (CDK5/p35): 9% | inhibition at 1 µM (EGFR (ErbB1)): 5% | inhibition at 1 µM (MAPK14 (p38 alpha)**): 93% | inhibition at 1 µM (FLT1 (VEGFR1)): 2%
SMILES: N#CCCNc1nccc(-c2cn(CC(F)F)nc2-c2cnc3[nH]ccc3c2)n1 [RAFi, PF-04880594]
